Laboratory results taken from US20140140946A1, “SKIN PREPARATION COMPOSITION FOR EXTERNAL USE WITH EXCELLENT ANTIBACTERIAL AND ANTIFUNGAL EFFECTS” (priority 2010, published 2014).

Tests used:
Assay type in all cases: cell-based
[1] = system: Pityrosporum ovale (Malassezia furfur); assay: Growth of Pityrosporum ovale in Leeming & Notman medium; conditions: 32° C. for 3 days; FIG. 4; trisodium phosphate at pH 8.0
Description: Each of citric acid (pH 4.0), trisodium phosphate (TSP, pH 8.4) and citric acid+trisodium phosphate (pH 5.0) was added to Leeming & Notman medium of 1 L containing glucose 10 g, peptone 10 g, bile salts 8 g, yeast extract 2 g, glycerol monostearate 0.5 g, glycerol 10 ml and Tween 80 (1.5%) 15 ml, and 0.1 ml of Pityrosporum ovale (Malassezia furfur), which is a kind of fungi known for causing atopy, was injected to each group.

[2] = system: Peptostreptococcus asaccharolyticus (KTCC 3321); assay: Growth of Peptostreptococcus asaccharolyticus in Wilkins Chalgren Anaerobe Broth; conditions: citric acid 0.8 g, trisodium phosphate 1.85 g, pH 6.0
Text: (§1) The following control group is a broth not injected with the bacteria.

[3] = system: Streptococcus mitis (KCTC 3556); assay: Growth of Streptococcus mitis in BHI broth; conditions: citric acid 0.4 g, trisodium phosphate 0.64 g, pH 6.0
Text: as §1

[4] = system: Streptococcus mutans (KCTC 3065); assay: Growth of Streptococcus mutans in BHI broth; conditions: citric acid 0.4 g, trisodium phosphate 0.64 g, pH 6.0
Text: as §1

[5] = system: S. salivarius (KCTC 3960); assay: Growth of S. salivarius in BHI broth; conditions: citric acid 0.4 g, trisodium phosphate 0.64 g, pH 6.0
Text: as §1

Streptococcus sanguinis = assay: Growth of Streptococcus sanguinis in BHI broth; conditions: citric acid 0.4 g, trisodium phosphate 0.64 g, pH 6.0
Text: as §1

With `O=P([O-])([O-])[O-].[Na+].[Na+].[Na+]` [trisodium phosphate] the “growth of P. ovale” value [1] was “significantly suppressed”.
With HCl [Broth D] the “Absorbance (OD)” value ([2]; 4 hrs) was 0.005 OD, the “Absorbance (OD)” value ([2]; 8 hrs) was 0.010 OD and the “Absorbance (OD)” value ([2]; 12 hrs) was 0.002 OD. The “Absorbance (OD)” value ([2]; 16 hrs) was 0.008 OD, the “Growth observed (in words)” value ([2]; 20 hrs) was “No change” and the “Growth observed (in words)” value ([2]; 24 hrs) was “No change”. For the same molecule, the “Growth observed (in words)” value ([2]; 56 hrs) was “Full growth”, the “Absorbance (OD)” value ([3]; 4 hrs) was 0.054 OD and the “Absorbance (OD)” value ([3]; 6 hrs) was 0.104 OD. The “Absorbance (OD)” value ([3]; 8 hrs) was 0.205 OD, the “Absorbance (OD)” value ([3]; 10 hrs) was 0.244 OD and the “Absorbance (OD)” value ([3]; 12 hrs) was 0.218 OD. The “Absorbance (OD)” value ([3]; 14 hrs) was 0.127 OD, the “Absorbance (OD)” value ([3]; 16 hrs) was 0.089 OD and the “Absorbance (OD)” value ([3]; 18 hrs) was 0.092 OD. The “Absorbance (OD)” value ([4]; 4 hrs) was 0.032 OD, the “Absorbance (OD)” value ([4]; 6 hrs) was 0.092 OD and the “Absorbance (OD)” value ([4]; 8 hrs) was 0.141 OD. For the same molecule, the “Absorbance (OD)” value ([4]; 10 hrs) was 0.200 OD, the “Absorbance (OD)” value ([4]; 12 hrs) was 0.244 OD and the “Absorbance (OD)” value ([4]; 14 hrs) was 0.212 OD. The “Absorbance (OD)” value ([4]; 16 hrs) was 0.235 OD, the “Absorbance (OD)” value ([4]; 18 hrs) was 0.210 OD and the “Absorbance (OD)” value ([5]; 4 hrs) was 0.011 OD. For the same molecule, the “Absorbance (OD)” value ([5]; 6 hrs) was 0.068 OD, the “Absorbance (OD)” value ([5]; 8 hrs) was 0.167 OD and the “Absorbance (OD)” value ([5]; 10 hrs) was 0.192 OD. The “Absorbance (OD)” value ([5]; 12 hrs) was 0.224 OD, the “Absorbance (OD)” value ([5]; 14 hrs) was 0.234 OD and the “Absorbance (OD)” value ([5]; 16 hrs) was 0.319 OD. The “Absorbance (OD)” value ([5]; 18 hrs) was 0.224 OD, the “Absorbance (OD)” value (Streptococcus sanguinis; 4 hrs) was 0.018 OD and the “Absorbance (OD)” value (Streptococcus sanguinis; 6 hrs) was 0.039 OD. The “Absorbance (OD)” value (Streptococcus sanguinis; 8 hrs) was 0.118 OD, the “Absorbance (OD)” value (Streptococcus sanguinis; 10 hrs) was 0.127 OD and the “Absorbance (OD)” value (Streptococcus sanguinis; 12 hrs) was 0.283 OD. For the same molecule, the “Absorbance (OD)” value (Streptococcus sanguinis; 14 hrs) was 0.303 OD, the “Absorbance (OD)” value (Streptococcus sanguinis; 16 hrs) was 0.203 OD and the “Absorbance (OD)” value (Streptococcus sanguinis; 18 hrs) was 0.199 OD.
